Data on 3 compounds can be found in article PMC12471299, “Secondary Metabolites of the Marine Sponge-Derived Fungus Aspergillus subramanianii 1901NT-1.40.2 and Their Antimicrobial and Anticancer Activities” (Marine Drugs, 2025).

For orientation: MIC50 means an inhibitory concentration at the 50% level, which refers to growth in some studies and to a panel of isolates in others. High values mean lower susceptibility, low ones higher susceptibility.

Converted amounts (≈) assume the structure as drawn. “And” between values parts separate entries of the source, which are not always exact repeats. Equal values may be shown once.

Data set [1] deals with Candida albicans KMM 455. Briefly: Antimicrobial assay, growth inhibition (optical density). The format is cell-based. The following applies: Candida albicans, KMM455, 18 h, C. albicans, 18 h. The procedure:
(§1) The Gram-positive bacterial Staphylococcus aureus ATCC 21027, Gram-negative bacterial Escherichia coli VKPM (B-7935), and yeast-like fungal Candida albicans KMM 455 strains were fermented on solid medium Mueller Hinton broth with agar (16.0 g/L) in a Petri dish at 37 °C for 24 h. The antimicrobial activity of the compound was tested at concentrations ranging from 100 µM and lower. The effect of the compound on bacterial growth was estimated as described by. Gentamicin and amphotericin B were used as positive controls against S. aureus, E. coli, and C. albicans, and a 1% dimethyl sulfoxide (DMSO) solution in PBS was used as a negative control. The optical density of the bacterial suspension after 18 h was measured at λ = 620 nm. The effect of the compound on biofilm formation for 18 h was tested using MTT reagent (Sigma-Aldrich, St. Louis, MO, USA) in accordance with. The optical density of the obtained solution was measured at λ = 570 nm. A Multiskan FS spectrophotometer (Thermo Scientific Inc., Beverly, MA, USA) was used for both assays. The results were calculated as percentages of the control data and presented as minimal concentrations reduced by 50% of growth or biofilm formation (MIC50).

Data set [2] has as its system Candida albicans KMM 455. Kind of data set: Biofilm formation assay (MTT). The class given is cell-based. The following applies: C. albicans, 18 h. On the procedure:
as §1

The test system of data set [3] is Escherichia coli VKPM (B-7935). Briefly: Antimicrobial assay, growth inhibition (optical density). The format is cell-based. The following applies: E. coli, 18 h; for MIC50: Escherichia coli. On the procedure:
as §1

The test system of data set [4] is Staphylococcus aureus ATCC 21027. Described as above. The format is cell-based. The following applies: S. aureus, 18 h; for MIC50: Staphylococcus aureus, ATCC21027, 18 h. On the procedure: as §1
Data set [5] has as its system Escherichia coli VKPM (B-7935). Kind of data set: Biofilm formation assay (MTT). The format is cell-based. The following applies: E. coli, 18 h. On the procedure: as §1
Data set [6] concerns Staphylococcus aureus ATCC 21027. Kind of data set: Biofilm formation assay (MTT). The format is cell-based. The following applies: S. aureus, 18 h. The procedure:
as §1

In data set [7] the test system is H9c2 cardiomyocytes. Kind of data set: Cell viability assay (MTT). The class given is cell-based, rat. The text has this: (§2) Rat cardiomyocyte H9c2 cells were kindly provided by Prof. Dr. Gunhild von Amsberg from the Martini-Klinik Prostate Cancer Center, University Hospital Hamburg-Eppendorf, Hamburg, Germany. The human HaCaT keratinocyte cell line was kindly provided by Prof. N. Fusenig (Cancer Research Centre, Heidelberg, Germany). Non-cancerous human breast epithelial MCF-10A cells were kindly provided by Dr. Irina Zhitnyak (N. N. Blokhin National Medical Research Center of Oncology, Moscow, Russia). Human breast cancer MCF-7 HTB-22 and MDA-MB-231 cells were obtained from the ATTC (Manassas, VA, USA).
(§3) H9c2 and HaCaT cells were cultured in DMEM with 10% fetal bovine serum and 1% penicillin/streptomycin (BioloT, St. Petersburg, Russia). MCF-7 and MDA-MB-231 cells were cultured in MEM (BioloT, St. Petersburg, Russia) with 10% fetal bovine serum (FBS) and 1% penicillin/streptomycin (BioloT, St. Petersburg, Russia). MCF 10A cells were cultured in DMEM F12 medium (BioloT, St. Petersburg, Russia) supplemented with 20% FBS, 20 ng/mL hrEGF (Sci-Store, Moscow, Russia), and 1% penicillin/streptomycin (BioloT, St. Petersburg, Russia). All cells were cultured at 37 °C in a humidified atmosphere containing 5% CO2.
(§4) H9c2 cells were seeded at a concentration of 3 × 10^3 cells/well. MCF-10A, MCF-7, and MDA-MB-231 cells were seeded at 5 × 10^3 cells/well, and HaCaT cells were seeded at 1 × 10^4 cells/well. The experiments were initiated after 24 h.
(§5) Compounds at concentrations up to 100 µM were added to the wells for 24h or 48 h, and the viability of the cells was measured using an MTT (3-(4,5-dimethylthiazol-2-yl)-2,5-diphenyltetrazolium bromide) assay, which was performed according to the manufacturer’s instructions (Sigma-Aldrich, Munich, Germany). […] DMSO was used as a control. The results are presented as percentages of the control data.

The test system of data set [8] is HaCaT keratinocytes. Kind of data set: Cell viability assay (MTT). The class given is cell-based, human.
Description: as §2, §3, §4, §5

Data set [9] concerns MCF-10A breast epithelial cells. Briefly: Cell viability assay (MTT). The format is cell-based, human. The following applies: MCF10A.
Description: as §2, §3, §4, §5

Data set [10] concerns MCF-7 breast cancer cells. Briefly: Cell viability assay (MTT). The class given is cell-based, human.
Description: as §2, §3, §4, §5

For data set [11], the system named is MDA-MB-231 breast cancer cells. Kind of data set: Cell viability assay (MTT). The class given is cell-based, human.
Description: as §2, §3, §4, §5

`C[C@@H]1[C@H](O)[C@@H](C)/C=C/C=C/C=C/C=C/C=C/C=C/C=C/[C@H](O[C@@H]2O[C@H](C)[C@@H](O)[C@H](N)[C@@H]2O)C[C@@H]2O[C@](O)(C[C@@H](O)C[C@@H](O)[C@H](O)CC[C@@H](O)C[C@@H](O)CC(=O)O[C@H]1C)C[C@H](O)[C@H]2C(=O)O` [Amphotericin B, reference compound] gave an MIC50 in data set [1] of 1.18 ± 0.15 µM (≈ 1.09 µg/mL). Besides, the “Biofilm formation, MIC50” value in [2] is recorded as 1.38 ± 0.14 µM.
Take `Cc1c(C)c(O)c2c(c1C)C(C)(O)OC2=O` (centres unmarked) [Compound 3, sclerolide]: the MIC50 is over 100 µM in [1], 21.1 µM (≈ 4.68 µg/mL) in data set [3] and 20.3 µM (≈ 4.52 µg/mL) in data set [4]. Also, the “Growth inhibition, MIC50” value in [3] is 21.07 ± 2.11 µM; in [4], 20.34 ± 2.58 µM. Also, the “Biofilm formation, MIC50” value in data set [2] is over 100 µM; in data set [5], 43.51 µM and 43.51 ± 4.03 µM; in [6] it was 31.14 µM and 31.14 ± 2.34 µM. Moreover, the cell viability is on record as 81.1 ± 3.2 % of control in data set [7] (H9c2, 24 h, 1.0 µM); 88.7 ± 4.4 % of control in [7] (H9c2, 24 h, 10.0 µM); 74.6 ± 8.3 % of control in [7] (H9c2, 24 h, 100.0 µM); 102.0 ± 5.5 % of control in [7] (H9c2, 48 h, 1.0 µM); 102.7 ± 6.7 % of control in data set [7] (H9c2, 48 h, 10.0 µM); 62.5 ± 4.6 % of control in data set [7] (H9c2, 48 h, 100.0 µM). Further, the cell viability is on record as 94.4 ± 5.9 % of control in data set [8] (24 h, 1.0 µM); 100.2 ± 3.0 % of control in [8] (24 h, 10.0 µM); 63.0 ± 8.6 % of control in [8] (24 h, 100.0 µM); 96.8 ± 1.0 % of control in data set [8] (48 h, 1.0 µM); 96.6 ± 4.1 % of control in data set [8] (48 h, 10.0 µM); 69.4 ± 3.5 % of control in data set [8] (48 h, 100.0 µM). The cell viability in [9] (24 h, 1.0 µM) is on record as 101.7 ± 1.3 % of control; in data set [9] (24 h, 10.0 µM), 92.2 ± 3.5 % of control; in data set [9] (24 h, 100.0 µM) it was 62.5 ± 2.2 % of control; in data set [9] (48 h, 1.0 µM) it was 101.6 ± 5.1 % of control; in data set [9] (48 h, 10.0 µM), 74.4 ± 2.4 % of control; in data set [9] (48 h, 100.0 µM), 47.5 ± 7.0 % of control. For the same compound, the cell viability in data set [10] (MCF-7, 24 h, 1.0 µM) was 107.2 ± 8.9 % of control; in data set [10] (MCF-7, 24 h, 10.0 µM), 95.6 ± 2.4 % of control; in data set [10] (MCF-7, 24 h, 100.0 µM) it was 70.2 ±5.5 % of control; in data set [10] (MCF-7, 48 h, 1.0 µM), 83.8 ± 3.1 % of control; in data set [10] (MCF-7, 48 h, 10.0 µM), 76.0 ± 2.6 % of control; in data set [10] (MCF-7, 48 h, 100.0 µM), 55.1 ± 1.0 % of control. Further, the cell viability in data set [11] (MDA-MB-231, 24 h, 1.0 µM) is listed as 99.8 ± 1.3 % of control; in data set [11] (MDA-MB-231, 24 h, 10.0 µM) it was 100.6 ± 5.7 % of control; in [11] (MDA-MB-231, 24 h, 100.0 µM), 68.6 ± 8.3 % of control; in data set [11] (MDA-MB-231, 48 h, 1.0 µM), 107.6 ± 2.8 % of control; in data set [11] (MDA-MB-231, 48 h, 10.0 µM), 99.0 ± 5.1 % of control; in data set [11] (MDA-MB-231, 48 h, 100.0 µM), 60.9 ± 3.6 % of control. Further, the decrease of viability in data set [7] (H9c2, at 100 µM, range given for H9c2 and HaCaT together) was 30.0–37.5%; in data set [8] (at 100 µM, range given for H9c2 and HaCaT together), 30.0–37.5%. The IC50 in [9] (Homo sapiens, MCF-10A, time not stated, read-out: half-maximal concentration (IC50), viability) is about 100 µM.
Turning to `CNC(C)C1CCC(N)C(OC2C(N)CC(N)C(OC3OCC(C)(O)C(NC)C3O)C2O)O1` (centres unmarked) [Gentamycin, reference compound], the figures for the MIC50 in data set [3] and in data set [4] were 5.03 ± 0.77 µM (≈ 2.4 µg/mL) and 4.52 ± 0.98 µM (≈ 2.16 µg/mL), respectively. Also, the “Biofilm formation, MIC50” value was 5.34 ± 0.50 µM in [5] and 4.34 ± 0.32 µM in data set [6].
